According to patent US20090162413A1 (priority 1998, published 2009):

What was measured:
[1] = Phase 1 multiple escalating intravenous dose safety and pharmacokinetics, QD for 14 days (Example 7); assay type: in vivo, human; conditions: for median Cmax: predicted 14-day profile; for AUCτ/Dose / Cmax / Cmax/Dose: secondary predicted parameter; for Gamma: terminal elimination rate constant
Protocol: The present study was designed to evaluate the pharmacokinetics of zotarolimus following multiple dosing and to assess its safety while maximizing systemic exposure of healthy subjects. […] The study investigated pharmacokinetics and safety of zotarolimus in a Phase 1, multiple dose-escalation study following multiple intravenous infusions of 200, 400 and 800 μg doses, every day for fourteen consecutive days in healthy subjects.
Phase 1, multiple-escalating dose, double-blind, placebo-controlled, randomized study. Seventy-two subjects equally divided in 3 once-daily (QD) regimens (200, 400 or 800 μg QD with 16 active and 8 placebo per regimen) were administered a 60-minute QD IV infusion of zotarolimus for 14 consecutive days. Blood samples were collected over 24 hours following the first dose, before dosing on days 10, 11, 12, 13, and for 168 hours following Day 14 dose. Urine samples were collected over 24 hours on days 1, 14, 16, 18 and 20. Blood and urine zotarolimus concentrations were determined using a validated LC/MS/MS method. Pharmacokinetic parameters were determined by compartmental analysis. All Day-AUC0-∞ (area under blood concentration-time curve from time 0 to infinity including all 14 doses) was calculated. Dose and time-linearity and achievement of steady-state were evaluated. Fraction of drug eliminated in urine was determined.
Within each group, subjects were equally divided at the two study sites with each site enrolling 12 subjects (zotarolimus, eight subjects; placebo four subjects). The dosing scheme within each dose group is presented below:
Subjects received, under fasting conditions, a single 60-minute daily (QD) intravenous infusion of 200, 400, or 800 μg of zotarolimus or a matching intravenous infusion of placebo for Groups I, II and III, respectively on Study Days 1 through 14. The drug was administered via a syringe pump connected to a y-site device, which also infused 125-150 mL of 5% aqueous dextrose solution (D5W) over 60 minutes. The groups were dosed sequentially with at least 7 days separating the last dose of the previous group and the first dose of the next group during which time safety data from the previous group was analyzed. Dose escalation was dependent on the safety analysis of the lower dose group.
Five (5)-mL blood samples were collected in potassium EDTA containing tubes to evaluate zotarolimus concentrations prior to dosing (0 hour), and at 0.25, 0.5, 1.0, 1 hour 5 min, 1.25, 1.5, 2, 3, 4, 8, 12, 18 and 24 hours after starting infusion on Study Days 1 and 14. Additional samples were collected at 36, 48, 72, 96, 120, 144 and 168 hours after starting infusion on Study Day 14 and before dosing on Days 10, 11, 12 and 13. Urine was collected in containers without preservatives over the following intervals: 0 to 6, 6 to 12, 12 to 18 and 18 to 24 hours after starting the infusion on Study Days 1, 14, 16, 18 and 20.
Blood and urine concentrations of zotarolimus were determined using a validated liquid/liquid extraction HPLC tandem mass spectrometric method (LC-MS/MS). The lower limit of quantification of zotarolimus was 0.20 ng/mL using 0.3 mL blood sample and 0.50 ng/mL using 0.3 mL urine sample.
Safety was evaluated based on adverse event, physical examination, vital signs, ECG, injection site and laboratory tests assessments
The pharmacokinetic parameter values of zotarolimus were estimated for individual subjects using compartmental analysis. Data from the first dose on Study Day 1, the last dose on Study Day 14 and the trough concentrations on Study Days 10, 11, 12 and 13 were simultaneously modeled for each individual subject. […]

[2] = release of zotarolimus from PC polymer coated 316L stainless steel coupons (Example 4); assay type: physicochemical
Text: The purpose of this example is to determine the rate of release of the zotarolimus drug from 316L Electropolished Stainless Steel Coupons coated with a biocompatible polymer containing phosphorylcholine side groups.
Rubber septa from lids from HPLC vials were removed from the vials and placed into glass vials so that the “Teflon” side faced up. These septa served as supports for the test samples. The test samples were 316L stainless steel coupons that had been previously coated with a biocompatible polymer containing phosphorylcholine side groups (PC polymer). Coronary stents are commonly made of 316L stainless steel and can be coated with the PC polymer to provide a depot site for loading drugs. The coated coupons, which serve to simulate stents, were placed onto the septa. By using a glass Hamilton Syringe, a solution of zotarolimus and ethanol (10 μl) was applied to the surface of each coupon. The solution contained zotarolimus (30.6 mg) dissolved in 100% ethanol (3.0 ml). The syringe was cleaned with ethanol between each application. The cap to the glass vial was placed on the vial loosely, thereby assuring proper ventilation. The coupon was allowed to dry for a minimum of 1.5 hours. Twelve (12) coupons were loaded in this way—six being used to determine the average amount of drug loaded onto the device and six being used to measure the time needed to release the drug from the devices.
To determine the total amount of zotarolimus loaded onto a coupon, a coupon was removed from the vial and placed into 50/50 acetonitrile/0.01M phosphate buffer (pH 6.0, 5.0 ml). The coupon was placed onto a 5210 Branson sonicator for one hour. The coupon was then removed from the solution, and the solution was assayed by HPLC.
The time release studies were performed by immersing and removing the individual coupons from fresh aliquots (10.0 ml) of 0.01 M phosphate buffer at a pH of 6.0 at each of the following time intervals −5, 15, 30 and 60 minutes. For the remaining time points of 120, 180, 240, 300, 360 minutes, volumes of 5.0 ml of buffer were used. To facilitate mixing during the drug release phase, the samples were placed onto an Eberbach shaker set at low speed. All solution aliquots were assayed by HPLC after the testing of the last sample was completed.
The HPLC analysis was performed with a Hewlett Packard series 1100 instrument having the following settings: […]

## CO[C@H]1C[C@@H]2CC[C@@H](C)[C@@](O)(O2)C(=O)C(=O)N2CCCC[C@H]2C(=O)O[C@H]([C@H](C)C[C@@H]2CC[C@H](n3cnnn3)[C@H](OC)C2)CC(=O)[C@H](C)/C=C(\C)[C@@H](O)[C@@H](OC)C(=O)[C@H](C)C[C@H](C)/C=C/C=C/C=C/1C [zotarolimus]
[1]; 200 μg QD IV infusion 14 days, compartmental, mean ± SD
  V1: 11.4 ± 1.7 L
[1]; 200 μg QD
  median Cmax: 11.4 ng/mL
[1]; 200 μg QD, mean ± SD
  AUCτ/Dose: 0.245 ± 0.031 ng·h/mL/µg
  Cmax: 11.2 ± 1.1 ng/mL
  Cmax/Dose: 0.056 ± 0.006 ng/mL/µg
  Gamma: 0.028 ± 0.005 h − 1
[1]; 400 μg QD IV infusion 14 days, compartmental, mean ± SD
  V1: 11.3 ± 1.0 L
[1]; 400 μg QD
  median Cmax: 22.1 ng/mL
[1]; 400 μg QD, mean ± SD
  AUCτ/Dose: 0.260 ± 0.047 ng·h/mL/µg
  Cmax: 21.4 ± 2.4 ng/mL
  Cmax/Dose: 0.053 ± 0.006 ng/mL/µg
  Gamma: 0.022 ± 0.003 h − 1
[1]; 800 μg QD IV infusion 14 days, compartmental, mean ± SD
  V1: 13.1 ± 3.2 L
[1]; 800 μg QD dose group, 24-hour period on Day 1 and Day 14
  fraction of the dose recovered in the urine as unchanged drug: approximately 0.1%
[1]; 800 μg QD
  median Cmax: 38.9 ng/mL
[1]; 800 μg QD, mean ± SD
  AUCτ/Dose: 0.224 ± 0.022 ng·h/mL/µg
  Cmax: 38.7 ± 6.3 ng/mL
  Cmax/Dose: 0.048 ± 0.008 ng/mL/µg
  Gamma: 0.023 ± 0.003 h − 1
[1]; 200-800 μg QD for 14 days
  evidence of immunosuppression, QTc prolongation or clinically significant adverse events: no subject displayed any clinical or biochemical evidence of immunosuppression, QTc prolongation or clinically significant adverse events
  most common treatment-emergent adverse events: pain, headache, injection site reaction, dry skin, abdominal pain, diarrhea and rash
  serious adverse events: no serious adverse events
[1]; IV for 14 consecutive days, 200-800 μg QD
  dose proportionality and time dependence of pharmacokinetics: dose proportional and time invariant
[1]; QD IV dosing, first trough samples on Day 10
  Steady state for QD dosing reached: ≤ 10 days
[1]; multiple doses of 200, 400, and 800 μg for 14 consecutive days
  tolerability: generally well tolerated
[1]; range of means over the studied regimens 200-800 μg QD
  V1: 11.3 to 13.1 L
[1]; within a 24-hour period post-dose, on average
  zotarolimus dose recovered in the urine: 0.1%
[2]; 0.01 M phosphate buffer pH 6.0, 0.00 min
  Percent Release: 0.00
[2]; 0.01 M phosphate buffer pH 6.0, 5.00 min
  Percent Release: 1.87
[2]; 0.01 M phosphate buffer pH 6.0, 15.00 min
  Percent Release: 2.97
[2]; 0.01 M phosphate buffer pH 6.0, 30.00 min
  Percent Release: 3.24
[2]; 0.01 M phosphate buffer pH 6.0, 60.00 min
  Percent Release: 3.29
[2]; 0.01 M phosphate buffer pH 6.0, 180.00 min
  Percent Release: 4.36
[2]; 0.01 M phosphate buffer pH 6.0, 240.00 min
  Percent Release: 4.37
[2]; 0.01 M phosphate buffer pH 6.0, 300.00 min
  Percent Release: 6.34
[2]; 0.01 M phosphate buffer pH 6.0, 360.00 min
  Percent Release: 7.88
